Earlier results, collected in patent US5112837A, “Quinoline derivatives having anti-tumor activity” (Imperial Chemical Industries PLC, priority 1987, dated 1992).

Key:
[1] = literature references
[2] = system: human breast, ovarian and liver cancer; settings: clinical trials

## C#CCN(Cc1ccc2nc(N)[nH]c(=O)c2c1)c1ccc(C(=O)N[C@@H](CCC(=O)O)C(=O)O)cc1 [CB3717]
[1]
  symptoms of toxicity in humans: symptoms of toxicity in humans, particularly in relation to the liver and kidney
[2]
  activity against human cancer: promising activity against human breast, ovarian and liver cancer
